{"source": "patent US12551368B2", "about": "“Bioerodible ocular drug delivery insert and therapeutic method” (EyePoint Pharmaceuticals, Inc., priority 2020, dated 2026)", "key": {"[1]": {"system": "Laser-Induced Choroidal Neovascularization (CNV)", "experiment": "Laser-Induced Choroidal Neovascularization (CNV) model, fluorescein angiography (Example 7)", "type": "in vivo, Swine (Mini-pig)", "protocol": "Safety and efficacy of a vorolanib insert were evaluated in a Swine (Mini-pig) Model of Laser-Induced Choroidal Neovascularization (CNV). The primary objective of this study was to evaluate the long-term safety and inhibition of vascular permeability and neovascularization in a laser-induced model of choroidal neovascularization (CNV) using a vorolanib insert in swine.\nOn the day of lasering (Groups 1-4) animals were treated with an 810 nm diode laser delivered through an indirect ophthalmoscope. Approximately 6 single laser spots were placed between retinal veins. Both eyes underwent laser treatment according to the schedule in the table above.\nOn the day of intravitreal injections animals were anesthetized and the eyes were aseptically prepared. […] Animals were allowed to recover normally from the procedure. The pigs were given a topical drop of antibiotic ophthalmic solution 4-6 hours later, and then BID for 2 additional days with at least 6 hours between doses. Animals were dosed on either Day 0 immediately following laser CNV induction or 7 days prior to laser CNV induction according to the schedule in the table above.\nFlourescein Angiography was done in both eyes in anesthetized animals at the timepoints as indicated in the experimental design table."}, "[2]": {"details": "cited from earlier work"}, "[3]": {"experiment": "Intravitreal Pharmacokinetic Study of vorolanib insert (Example 5)", "type": "in vivo, Male Dutch Belted Rabbits", "protocol": "An Intravitreal Pharmacokinetic Study was performed in Male Dutch Belted Rabbits. The objective of this study was to characterize the plasma and ocular tissue pharmacokinetics of a vorolanib insert following bilateral intravitreal injection on Day 1. Animals were evaluated up to 24 months following placement of the intravitreal insert.\nThe low dose group (1) received 3 inserts per eye for a total dose of 630 μg per eye. The high dose group (2) animals received 6 inserts per eye given in 2 separate injections (3 inserts per injection) for a total dose of 1,260 μg per eye.\nPrior to each scheduled sacrifice point, one whole blood sample was collected from a targeted 2 animals per group via puncture of a marginal ear vein. Samples were tested for levels of vorolanib and its metabolite. Two animals per group were euthanized on day 1 at 6, 12, 24 and 48 hours, on days 7 and 14, and at 1, 2, 4, 6, 8, 16 and 24 months."}, "[4]": {"experiment": "18 month intravitreal toxicity and plasma pharmacokinetics study of the insert (Example 6)", "type": "in vivo", "details": "rabbit", "protocol": "An 18 month intravitreal toxicity study for the insert was also performed in 80 Dutch Belted rabbits (40 male and 40 female). Animals were evaluated for a period of 6 and 18 months following placement of intravitreal inserts. The objective was to characterize the ocular toxicity, plasma pharmacokinetics and biodegradation of a vorolanib insert following bilateral intravitreal injection.\nThe tables below describe the group assignments and dose levels. For the toxicology groups, animals were sacrificed at 6 months and 18 months. For the plasma pharmacokinetic analysis, blood samples were collected at Days 1, 3, and 7 and then 1, 2, 3, 4, 5, 6, 12, 14, 16 and 18 Months\nThe placebo group (1) animals received two placebo inserts by injection in each eye. The low dose group (2) animals received 2 inserts in each eye. The mid dose group (3) animals received 3 inserts in each eye given in 2 separate injections. The high dose group (4) animals received 4 inserts in each eye given in 2 separate injections (2 inserts/injection). The highest dose group (5) animals received 6 inserts in each eye given in 2 separate injections (3 inserts/injection).\nAt each scheduled timepoint, whole blood was collected via puncture of a marginal ear vein. Samples were analyzed for clinical pathology and plasma pharmacokinetics. Animals were euthanized according to the schedules described above. […]"}}}
{"compound": "aflibercept: VEGF inhibitor used as comparator, 2 mg, 50 μL/eye IVT", "values": [{"measurement": "reduction in Corrected Total Lesion Fluorescence (CTLF) value", "setting": "[1]; Day 7 to Day 28, Aflibercept (2 mg), 50 μL/eye IVT", "result": "largest reduction in CTLF values"}, {"measurement": "overall efficacy in the CNV model", "setting": "[1]; IVT, swine", "result": "normal amounts of efficacy in this model"}]}
{"compound": "CNC(=O)c1ccccc1Sc1ccc2c(/C=C/c3ccccn3)n[nH]c2c1", "note": "[axitinib, N-methyl-2-[3-((E)-2-pyridin-2-yl-vinyl)-1H-indazol-6-ylsulfanyl]-benzamide]", "values": [{"measurement": "solubility in aqueous media", "setting": "[2]; over the range pH 1.1 to pH 7.8", "result": "> 0.2", "unit": "µg/mL"}]}
{"compound": "Cc1[nH]c(/C=C2\\C(=O)Nc3ccc(F)cc32)c(C)c1C(=O)N[C@H]1CCN(C(=O)N(C)C)C1", "note": "[vorolanib, (S,Z)—N-(1-(Dimethylcarbamoyl)pyrrolidin-3-yl)-5-((5-fluoro-2-oxoindolin-3-ylidene)methyl)-2,4-dimethyl-1H-pyrrole-3-carboxamide]", "values": [{"measurement": "dose proportionality of maximum observed concentrations in vitreous and retina/choroid", "setting": "[3]; 630 vs 1,260 μg per eye, rabbit", "result": "nearly dose-proportional"}, {"measurement": "vorolanib plasma levels", "setting": "[3]; PK study, rabbit", "result": "low pg/mL range"}, {"measurement": "change in plasma levels", "setting": "[3]; after 99 days, rabbit", "result": "No apparent change"}, {"measurement": "vorolanib levels in the vitreous and the retina/choroid relative to the IC50 for VEGFR", "setting": "[3]; at the time points tested, rabbit", "result": "remained significantly above the IC50 for VEGFR"}, {"measurement": "time at which steady state was reached", "setting": "[3]; inserts in rabbit eye", "result": "≤ 105", "unit": "days"}, {"measurement": "burst period of drug release in vivo", "setting": "[3]; inserts in rabbit eye, followed by steady state", "result": 90, "unit": "days"}, {"measurement": "vorolanib plasma levels", "setting": "[4]; 2 to 6 inserts per eye, bilateral intravitreal, toxicology study", "result": "low pg/mL range"}, {"measurement": "adverse findings", "setting": "[4]; intravitreal, up to 6 inserts per eye", "result": "No adverse findings were attributed to vorolanib"}, {"measurement": "solubility in water", "setting": "[2]", "result": "less than 0.1 μg/mL"}]}
